Results taken from PubChem BioAssay (NCI).
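Following 48 hours of exposure in 96-well plates, responses at five concentrations were used to interpolate endpoints linearly. TGI marks complete inhibition of growth.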

Experiments:
Assay in all cases: NCI anticancer screen, dose series, 48 h
[1] = system: SR leukemia
[2] = system: KM12 colon
[3] = system: CAKI-1 renal
[4] = system: RXF 393 renal
[5] = system: TK-10 renal
[6] = system: 786-0 renal
[7] = system: NCI-H460 lung
[8] = system: SW-620 colon
[9] = system: SF-295 CNS
[10] = system: M14 melanoma
[11] = system: LXFL 529 NSCLC
[12] = system: CCRF-CEM leukemia
[13] = system: EKVX NSCLC
[14] = system: HCT-15 colon
[15] = system: UO-31 renal
[16] = system: RPMI-8226 leukemia
[17] = system: HOP-62 NSCLC
[18] = system: SNB-75 CNS
[19] = system: NCI-H522 lung
[20] = system: DMS 114 small cell lung
[21] = system: HT29 colon
[22] = system: UACC-62 melanoma
[23] = system: IGROV1 ovarian
[24] = system: LOX IMVI melanoma
[25] = system: KM20L2 colon
[26] = system: U251 CNS
[27] = system: OVCAR-4 ovarian
[28] = system: COLO 205 colon
[29] = system: HCC-2998 colon
[30] = system: MALME-3M melanoma
[31] = system: OVCAR-8 ovarian
[32] = system: HCT-116 colon
[33] = system: SK-OV-3 ovarian
[34] = system: SK-MEL-2 melanoma
[35] = system: A498 renal
[36] = system: SNB-78 CNS
[37] = system: DMS 273 small cell lung
[38] = system: SK-MEL-5 melanoma
[39] = system: OVCAR-3 ovarian
[40] = system: OVCAR-5 ovarian
[41] = system: UACC-257 melanoma
[42] = system: SF-539 CNS
[43] = system: NCI-H23 lung
[44] = system: SF-268 CNS
[45] = system: NCI-H226 lung
[46] = system: MOLT-4 leukemia
[47] = system: HL-60(TB) leukemia
[48] = system: SN12C renal
[49] = system: HOP-18 NSCLC
[50] = system: K-562 leukemia
[51] = system: DLD-1 colon
[52] = system: M19-MEL melanoma
[53] = system: HOP-92 NSCLC
[54] = system: A549 NSCLC
[55] = system: SNB-19 CNS

Cc1c(/C=N/N=C/c2[nH]c(C(=O)OC(C)(C)C)c(C)c2C)[nH]c(C(=O)OC(C)(C)C)c1C
TGI [1]: > 100 µM
TGI [2]: > 100 µM
TGI [3]: > 100 µM
TGI [4]: > 100 µM
TGI [5]: > 100 µM
TGI [6]: > 100 µM
TGI [7]: > 100 µM
TGI [8]: > 100 µM
TGI [9]: > 100 µM
TGI [10]: > 100 µM
TGI [11]: > 100 µM
TGI [12]: > 100 µM
TGI [13]: > 100 µM
TGI [14]: > 100 µM
TGI [15]: > 100 µM
TGI [16]: > 100 µM
TGI [17]: > 100 µM
TGI [18]: 88.1 µM
TGI [19]: > 100 µM
TGI [20]: > 100 µM
TGI [21]: > 100 µM
TGI [22]: > 100 µM
TGI [23]: > 100 µM
TGI [24]: > 100 µM
TGI [25]: > 100 µM
TGI [26]: > 100 µM
TGI [27]: > 100 µM
TGI [28]: > 100 µM
TGI [29]: > 100 µM
TGI [30]: > 100 µM
TGI [31]: > 100 µM
TGI [32]: > 100 µM
TGI [33]: > 100 µM
TGI [34]: > 100 µM
TGI [35]: > 100 µM
TGI [36]: > 100 µM
TGI [37]: > 100 µM
TGI [38]: > 100 µM
TGI [39]: > 100 µM
TGI [40]: > 100 µM
TGI [41]: > 100 µM
TGI [42]: > 100 µM
TGI [43]: > 100 µM
TGI [44]: > 100 µM
TGI [45]: > 100 µM
TGI [46]: > 100 µM
TGI [47]: > 100 µM
TGI [48]: > 100 µM
TGI [49]: > 100 µM
TGI [50]: > 100 µM
TGI [51]: > 100 µM
TGI [52]: > 100 µM
TGI [53]: > 100 µM
TGI [54]: > 100 µM
TGI [55]: > 100 µM
